Measurements: patent US4767720A, “Antidigoxin antibodies” (HSC Research Development Corporation, priority 1985, dated 1988)
“Also recorded” adds a separate entry of the source.

Key:
[1] = test system: commercial antidigoxin antibodies raised against BSA periodate conjugated digoxin; assay: 125I-digoxin RIA using commercial antidigoxin antibodies (whole serum or affinity purified); assay type: binding; conditions: for Concentration Measured by RIA Using Affinity Purified Antibody: antibody affinity purified from the same immune serum; for Concentration Measured by RIA Using whole Serum: commercial antidigoxin antibodies, true concentration of antigen given
Protocol: Antidigoxin antibodies raised against BSA periodate conjugated digoxin were purchased from Antibodies Incorporated (Davis, Calif.) and Wien Laboratories (Succasunna, N.J.). Antidigoxin activity was determined using the ^125 I-digoxin radioimmune assay as previously described. Soldin, S; Papanastasion-Diamand, A; Heyes, J;, Lingwood C. A. and Olley, P. (1984) Are Immunoassays for Digoxin Reliable? Clin. Biochem. 17, 317-320. The immune serum was precipitated with 40% ammonium sulfate. The precipitate was redissolved and dialysed against phosphate buffered saline pH 7.4 (PBS). Antidigoxin antibodies were further purified by immunoaffinity chromatography. Digoxin was covalently linked to agarose by use of a photoactive heterobifunctional crosslinking agent as described in Lingwood, C. A. (1984) Production of Glycolipid Affinity Matrices by Use of Heterobifunctional Crosslinking Agents, J. Lipid Res. 25, 1010-1012. Amino hexyl agarose was treated with 2 mM hydroxysuccinimidyl azidobenzoate in the dark for 1 hour at room temperature. The beads were washed with water and 2 mg ^3 H-digoxin (1 mg/ml enthanol/water 1:1) was added. The beads were rotoevaporated to dryness when the digoxin was absorbed onto the beads. The dry beads were then irradiated for 2 min/1 cm from a Mineralight II UV source with stirring, when the digoxin is covalently attached to the agarose beads. The matrix was washed with 100 column volumes 50% ethanol and 50 column volumes water. The wash fractions were concentrated and unbound ^3 H-digoxin was measured. The amount of digoxin coupled/ml agarose was calculated (0.2 μmoles/ml beads).
The immunoglobulin fraction from 1 ml immune serum was applied and the digoxin column was washed with PBS. Antidigoxin activity was measured using the automated ^125 I-RIA method. […] Specific antibodies were eluted by addition of 10 ml 1M KI followed by 10 ml 1M KSCN. The eluted fractions were dialysed, concentrated vs sucrose, dialysed and used in the RIA.
Cross-reactivity of commercial antidigoxin antibodies towards the digoxin metabolites in which one, two and three sugars have been removed (digoxigenin bisdigitoxoside, monodigitoxoside and […] respectively) was measured. […] Purification of the antidigoxin antibodies by affinity chromatography considerably reduces this cross reactivity such that the metabolites are now recognized on a one to one basis relative to digoxin.

[2] = test system: antibodies raised against ozonized digoxin-BSA; assay type: binding, rabbit; conditions: for competition for 3H-digoxin binding / cross reaction with the new antibody: 3H-digoxin RIA, FIG. 7a and 7b; for Digoxin apparent value measured by [3H]digoxin RIA: metabolite alone at the actual concentration of the line, actual digoxin 0; for cross-reactivity index: calculated from the molar concentration required to reduce the 3H-digoxin binding by 50%
Protocol: The ^3 H-digoxin radioimmunoassay method was adapted from that previously described in Cerceo E. and Elloso CA (1972) Factors Affecting the Radioimmunoassay of Digoxin, Clin. Chem. 18, 539-542. Briefly, tubes containing 0-30 ng ^3 H-digoxin (3000 dpm) in PBS were incubated at room temperature for 15 mins in the presence of 1/20 diluted antidigoxin serum. Ice cold dextran coated charcoal was added and incubated at 4° C. for 10 mins. This mixture was centrifuged and the ^3 H-digoxin remaining in the supernate was counted in a liquid scintillation spectrometer. Controls in the absence of serum and for non-immune serum were performed in parallel.
The degree of cross reactivity of the digoxin metabolites was monitored using the ^3 H-digoxin radioimmunoassay.

[3] = test system: antibodies generated against periodate-oxidized digoxin-BSA conjugate; assay type: binding; conditions: metabolite alone at the actual concentration of the line, actual digoxin 0
From the text: A comparison was made between the antiserum of Example 4 and the commercially available antidigoxin serum using FPIA (fluorescence polarization immuno assay) to measure the digoxin concentration for solutions containing known levels of the digoxin metabolites as identified in the following Table 3.

[4] = test system: antidigoxin antibody raised against a bovine serum albumin-digoxin conjugate immunogen; conditions: background statement on prior-art antibodies; cited from earlier work

SMILES	Concentration Measured by RIA Using Affinity Purified Antibody [1] [nmol/L]	Concentration Measured by RIA Using whole Serum [1] [nmol/L]	competition for 3H-digoxin binding / cross reaction with the new antibody [2]	Digoxin apparent value measured by [3H]digoxin RIA [2] [nmol/L]	Digoxin apparent value measured by FPIA [3] [nmol/L]	cross-reactivity with the antibodies [4]	cross-reactivity index [2] [%]
C[C@]12CC[C@H](O)C[C@H]1CC[C@@H]1[C@@H]2C[C@@H](O)[C@]2(C)[C@@H](C3=CC(=O)OC3)CC[C@]12O [Digoxigenin]	6.9	25.2	ineffective antigen	0	13.8	react with the antibodies	
C[C@H]1O[C@@H](O[C@H]2[C@@H](O)C[C@H](O[C@H]3[C@@H](O)C[C@H](O[C@H]4CC[C@@]5(C)[C@H](CC[C@@H]6[C@@H]5CC[C@]5(C)[C@@H](C7=CC(=O)OC7)CC[C@]65O)C4)O[C@@H]3C)O[C@@H]2C)C[C@H](O)[C@@H]1O [Digitoxin]			considerable reduced reactivity	0	9.6		11
CC1OC(OC2C(O)CC(OC3C(O)CC(OC4CCC5(C)C(CCC6C5CC(O)C5(C)C(C7=CC(=O)OC7)CCC65O)C4)OC3C)OC2C)CC(O)C1O (stereo not shown) [digoxin, Digoxin]			effectively competed out				
C[C@H]1O[C@@H](O[C@H]2CC[C@@]3(C)[C@H](CC[C@@H]4[C@@H]3C[C@@H](O)[C@]3(C)[C@@H](C5=CC(=O)OC5)CC[C@]43O)C2)C[C@H](O)[C@@H]1O [Digoxigenin monodigitoxide]	5.0	24.3		0.7	10	react with the antibodies	3.7
C[C@H]1O[C@@H](O[C@H]2[C@@H](O)C[C@H](O[C@H]3CC[C@@]4(C)[C@H](CC[C@@H]5[C@@H]4C[C@@H](O)[C@]4(C)[C@@H](C6=CC(=O)OC6)CC[C@]54O)C3)O[C@@H]2C)C[C@H](O)[C@@H]1O [Digoxigenin bisdigitoxide, digoxigenin bisdigitoxide]	6.3	25.2		0.8	6.05	react with the antibodies	14.6
C[C@@H](O)[C@@H](O)[C@@H](O)CC=O [digitoxose]			does not compete for digoxin binding; also recorded: does not cross react at all				
CC1OC(OC2C(O)CC(OC3C(O)CC(OC4CCC5(C)C(CCC6C5CC(O)C5(C)C(C7COC(=O)C7)CCC65O)C4)OC3C)OC2C)CC(O)C1O (stereo not shown) [dihydrodigoxin]						little or no cross-reactivity	
C[C@]12CC[C@H](O)C[C@H]1CC[C@@H]1[C@@H]2C[C@@H](O)[C@]2(C)[C@@H](C3COC(=O)C3)CC[C@]12O (stereo partly shown) [Dihydrodigoxigenin]	0.8	0.8				little or no cross-reactivity	
